In patent US9617242B2, “Histone demethylase inhibitors” (priority 2012, dated 2017):
pIC50: −log10 of the molar value. Structures can show the parent of a compound that is named as a salt. Where two headings read alike, the source gives them in different places.

Columns and labels:
KDM5A/B = assay: In vitro cell-based assay: tri-methyl H3K4 immuno-blotting in ZR-75-1 breast cancer cells
Experimental: This quantitative immuno-blotting assay measures the amount tri-methylated histone H3 at amino acid Lysine number 4, a specific substrate […] of the direct enzymatic activity of the histone demethylases KDM5A and KDM5B from extracts of the ZR-75-1 breast cancer cell line.
This assay is a fluorometric immunoassay for the quantification of tri-methyl H3K4 extracted from cells treated with test compound and is used as a measure of the cellular inhibition of KDM5A/B.
Extracts were prepared containing all of the cellular histone material using detergent based lysis and sonication methods. These lysates were subsequently normalized for total protein content using a colorimetric bicinchonic acid assay (MicroBCA Pierce/Thermo Scientific). Normalized cell extracts were then subjected to typical immuno-blotting procedures using NuPage reagents (Life Technologies). Electrophoretically separated histones were then transferred and immobilized using polyvinylidene difluoride membrane (Immobilon-FL Millipore). The amount of tri-methylated lysine 4 of histone H3 was detected using an antibody specific to the tri-methylated state (Cell Signaling Technologies) and quantified on an infrared imager using a densitometry software package (Odyssey CLx, Image Studio, Li-Cor). This background subtracted densitometry value was reported as a ration of the GAPDH amount for that sample and then calculated as a percent of the DMSO treated sample. The software package XL-fit (IDBS) was then used to calculate a relative IC50 value for the dilution series of a given test compound according to the equation: fit=(D+((Vmax*(x^n))/((x^n)+(Km^n)))).

Jarid1A = Jarid1A (Homo sapiens (Human), UniProt P29375); assay: Jarid1A in vitro enzyme inhibition assay (TR-FRET); type: biochemical
Jarid1B = Jarid1B (Homo sapiens (Human), UniProt Q9UGL1); assay: Jarid1B in vitro enzyme inhibition assay (TR-FRET); type: biochemical
[1] = 72 hours, read-out: Cellular IC50
[2] = read-out: Cellular IC50, 72 hours

Chain of Jarid1A (P29375 1-1090): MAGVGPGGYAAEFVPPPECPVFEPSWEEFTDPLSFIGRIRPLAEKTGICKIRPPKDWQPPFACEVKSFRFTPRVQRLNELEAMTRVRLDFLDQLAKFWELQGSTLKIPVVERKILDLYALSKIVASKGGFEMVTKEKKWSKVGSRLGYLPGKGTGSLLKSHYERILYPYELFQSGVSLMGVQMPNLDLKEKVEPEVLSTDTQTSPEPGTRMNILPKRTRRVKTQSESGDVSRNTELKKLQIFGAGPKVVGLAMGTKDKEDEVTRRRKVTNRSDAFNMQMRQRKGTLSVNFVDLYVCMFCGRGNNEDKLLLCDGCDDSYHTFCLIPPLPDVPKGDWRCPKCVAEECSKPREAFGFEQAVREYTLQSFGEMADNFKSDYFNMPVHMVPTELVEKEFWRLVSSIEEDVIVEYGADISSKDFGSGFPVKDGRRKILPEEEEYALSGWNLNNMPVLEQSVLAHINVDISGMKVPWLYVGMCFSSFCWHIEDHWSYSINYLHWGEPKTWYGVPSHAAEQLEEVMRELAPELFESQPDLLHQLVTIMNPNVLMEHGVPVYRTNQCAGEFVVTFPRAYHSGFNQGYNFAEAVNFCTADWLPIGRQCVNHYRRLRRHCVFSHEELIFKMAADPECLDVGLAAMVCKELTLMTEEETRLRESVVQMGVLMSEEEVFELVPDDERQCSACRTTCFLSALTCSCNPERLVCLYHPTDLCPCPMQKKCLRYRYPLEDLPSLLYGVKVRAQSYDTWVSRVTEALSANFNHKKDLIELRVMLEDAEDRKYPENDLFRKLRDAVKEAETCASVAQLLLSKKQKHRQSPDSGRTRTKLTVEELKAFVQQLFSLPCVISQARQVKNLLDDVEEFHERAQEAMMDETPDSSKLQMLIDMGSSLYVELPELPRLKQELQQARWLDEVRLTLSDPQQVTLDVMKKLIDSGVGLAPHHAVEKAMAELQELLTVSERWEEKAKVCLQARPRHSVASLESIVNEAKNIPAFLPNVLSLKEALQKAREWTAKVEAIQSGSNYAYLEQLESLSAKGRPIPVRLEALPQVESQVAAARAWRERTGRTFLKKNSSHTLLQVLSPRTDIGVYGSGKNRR
Chain of Jarid1B (Q9UGL1 2-751): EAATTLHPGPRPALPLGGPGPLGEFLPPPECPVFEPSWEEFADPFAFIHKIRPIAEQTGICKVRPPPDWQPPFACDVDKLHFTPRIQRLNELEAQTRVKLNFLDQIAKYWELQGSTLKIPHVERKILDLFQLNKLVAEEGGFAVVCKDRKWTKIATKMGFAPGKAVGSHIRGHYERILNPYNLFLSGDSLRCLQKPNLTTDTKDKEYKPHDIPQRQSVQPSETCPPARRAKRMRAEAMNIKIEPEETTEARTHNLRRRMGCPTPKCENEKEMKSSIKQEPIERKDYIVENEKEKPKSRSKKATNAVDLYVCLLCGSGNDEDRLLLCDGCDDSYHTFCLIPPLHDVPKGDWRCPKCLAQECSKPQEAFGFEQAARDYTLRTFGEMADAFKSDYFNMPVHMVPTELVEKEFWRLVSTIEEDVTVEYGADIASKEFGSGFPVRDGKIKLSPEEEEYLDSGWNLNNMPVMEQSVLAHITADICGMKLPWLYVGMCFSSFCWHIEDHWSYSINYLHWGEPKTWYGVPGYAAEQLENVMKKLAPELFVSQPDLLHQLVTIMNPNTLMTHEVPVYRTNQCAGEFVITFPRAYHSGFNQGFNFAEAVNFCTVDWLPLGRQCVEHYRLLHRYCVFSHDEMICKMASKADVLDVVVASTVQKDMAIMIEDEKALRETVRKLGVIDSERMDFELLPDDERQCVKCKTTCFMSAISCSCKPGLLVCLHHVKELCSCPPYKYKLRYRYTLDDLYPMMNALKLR

Row | pIC50 (KDM5A/B; [1]) | pIC50 (Jarid1A) | pIC50 (Jarid1B) | Structure (SMILES) | pIC50 (KDM5A/B; [2])
1 | 6.00 to 7.00 |  |  | Cc1ccc2c(c1)c(Nc1cnccc1C(=O)O)nn2C [Example 12, 3-[(1,5-dimethyl-1H-indazol-3-yl)amino]pyridine-4-carboxylic acid] | 
2 | 5.00 to 6.00 | > 7.00 | > 7.00 | O=C(O)c1ccncc1Nc1nn(CC(F)(F)F)c2ccc(F)cc12 [Example 23, 3-{[5-fluoro-1-(2,2,2-trifluoroethyl)-1H-indazol-3-yl]amino}pyridine-4-carboxylic acid] | 
3 | 5.00 to 6.00 | > 7.00 | > 7.00 | O=C(O)c1ccncc1Nc1nn(CC2CCCC2)c2ccc(F)cc12 [Example 30, 3-{[1-(cyclopentylmethyl)-5-fluoro-1H-indazol-3-yl]amino}pyridine-4-carboxylic acid] | 
4 | 5.00 to 6.00 |  |  | O=C(O)c1ccncc1Nc1nn([C@H]2CCNC2)c2ccc(F)cc12 [Example 60, 3-({5-fluoro-1-[(3S)-pyrrolidin-3-yl]-1H-indazol-3-yl}amino)pyridine-4-carboxylic acid] | 
5 | 5.00 to 6.00 | > 7.00 | > 7.00 | COCCn1nc(Nc2cnccc2C(=O)O)c2ccccc21 [Example 10, 3-{[1-(2-methoxyethyl)-1H-indazol-3-yl]amino}pyridine-4-carboxylic acid] | 
6 | 5.00 to 6.00 | > 7.00 | > 7.00 | CCCn1nc(Nc2cnccc2C(=O)O)c2cc(F)ccc21 [Example 15, 3-[(5-fluoro-1-propyl-1H-indazol-3-yl)amino]pyridine-4-carboxylic acid] | 
7 | 5.00 to 6.00 | > 7.00 | > 7.00 | COc1ccc2c(Nc3cnccc3C(=O)O)nn(C)c2c1 [Example 8, 3-[(6-methoxy-1-methyl-1H-indazol-3-yl)amino]pyridine-4-carboxylic acid] | 
8 | 5.00 to 6.00 | > 7.00 | > 7.00 | Cc1ccc2c(Nc3cnccc3C(=O)O)nn(C)c2c1 [Example 5, 3-[(1,6-dimethyl-1H-indazol-3-yl)amino]pyridine-4-carboxylic acid] | 
9 |  |  |  | CN(C)CC#CCn1nc(Nc2cnccc2C(=O)O)c2cc(F)ccc21 [Example 49, 3-({1-[4-(dimethylamino)but-2-yn-1-yl]-5-fluoro-1H-indazol-3-yl}amino)pyridine-4-carboxylic acid, trifluoroacetic acid salt] | < 5.00
10 | 6.00 to 7.00 | > 7.00 | > 7.00 | O=C(O)c1ccncc1Nc1nn(CCC(F)(F)F)c2ccc(F)cc12 [Example 32, 3-{[5-fluoro-1-(3,3,3-trifluoropropyl)-1H-indazol-3-yl]amino}pyridine-4-carboxylic acid] | 
11 | 5.00 to 6.00 | > 7.00 | > 7.00 | O=C(O)c1ccncc1Nc1cn(CCC(F)(F)F)c2ccc(Cl)cc12 [Example 59, 3-{[5-chloro-1-(3,3,3-trifluoropropyl)-1H-indol-3-yl]amino}pyridine-4-carboxylic acid] | 
12 |  | > 7.00 | > 7.00 | N#CNC(=O)c1ccncc1Nc1nn([C@H]2CCOC2)c2ccc(F)cc12 [Example 70, N-cyano-3-({5-fluoro-1-[(3S)-tetrahydrofuran-3-yl]-1H-indazol-3-yl}amino)pyridine-4-carboxamide] | 
13 |  | > 7.00 | > 7.00 | N#CNC(=O)c1ccncc1Nc1nn(CCN2CCCC2)c2ccc(Cl)cc12 [Example 79, N-cyano-3-({5-chloro-1-[2-(pyrrolidin-1-yl)ethyl]-1H-indazol-3-yl}amino)pyridine-4-carboxamide] | 
14 | 5.00 to 6.00 | > 7.00 | > 7.00 | O=C(O)c1ccncc1Nc1nn(C2CCOC2)c2ccc(Cl)cc12 (centres unmarked) [Example 69, 3-{[5-chloro-1-(tetrahydrofuran-3-yl)-1H-indazol-3-yl]amino}pyridine-4-carboxylic acid] | 
15 | 5.00 to 6.00 | > 7.00 | > 7.00 | O=C(O)c1ccncc1Nc1nn(CC2CCCO2)c2ccc(F)cc12 (centres unmarked) [Example 21, 3-{[5-fluoro-1-(tetrahydrofuran-2-ylmethyl)-1H-indazol-3-yl]amino}pyridine-4-carboxylic acid] | 
16 | 5.00 to 6.00 | > 7.00 | > 7.00 | O=C(O)c1ccncc1Nc1nn(CCC2CC2)c2ccc(F)cc12 [Example 31, 3-{[1-(cyclopropylethyl)-5-fluoro-1H-indazol-3-yl]amino}pyridine-4-carboxylic acid] | 

Row | pIC50 (KDM5A/B; [1]) | pIC50 (Jarid1A) | pIC50 (Jarid1B) | Structure (SMILES) | pIC50 (KDM5A/B; [2])
17 |  | > 7.00 | > 7.00 | N#CNC(=O)c1ccncc1Nc1nn(CCN2CCC(F)(F)C2)c2ccc(F)cc12 [Example 72, N-cyano-3-({1-[2-(3,3-difluoropyrrolidin-1yl)ethyl]-5-fluoro-1H-indazol-3-yl}amino)pyridine-4-carboxamide] | 
18 |  | > 7.00 | > 7.00 | CCn1nc(Nc2cnccc2C(=O)O)c2cc(C)ccc21 [Example 36, 3-[(1-ethyl-5-methyl-1H-indazol-3-yl)amino]pyridine-4-carboxylic acid] | 
19 | 6.00 to 7.00 | > 7.00 | > 7.00 | CCCn1nc(Nc2cnccc2C(=O)O)c2ccccc21 [Example 9, 3-[(1-propyl-1H-indazol-3-yl)amino]pyridine-4-carboxylic acid] | 
20 | 6.00 to 7.00 | > 7.00 | > 7.00 | O=C(O)c1ccncc1Nc1nn(C2CCCC2)c2ccc(F)cc12 [Example 29, 3-[(1-cyclopentyl-5-fluoro-1H-indazol-3-yl)amino]pyridine-4-carboxylic acid] | 
21 | 6.00 to 7.00 | > 7.00 | > 7.00 | O=C(O)c1ccncc1Nc1nn(CC2CCC2)c2ccc(F)cc12 [Example 28, 3-{[1-(cyclobutylmethyl)-5-fluoro-1H-indazol-3-yl]amino}pyridine-4-carboxylic acid] | 
22 |  | > 7.00 | > 7.00 | N#CNC(=O)c1ccncc1Nc1nn(CCN2CCC(F)(F)CC2)c2ccc(F)cc12 [Example 74, N-cyano-3-({1-[2-(4,4-difluoropiperidin-1yl)ethyl]-5-fluoro-1H-indazol-3-yl}amino)pyridine-4-carboxamide] | 
23 | 6.00 to 7.00 | > 7.00 | > 7.00 | Cn1nc(Nc2cnccc2C(=O)O)c2cc(Cl)ccc21 [Example 4, 3-[(5-chloro-1-methyl-1H-indazol-3-yl)amino]pyridine-4-carboxylic acid] | 
24 |  | > 7.00 | > 7.00 | CN(C)CCCCn1nc(Nc2cnccc2C(=O)NC#N)c2cc(F)ccc21 [Example 76, N-cyano-3-({1-[4-(dimethylamino)butyl]-5-fluoro-1H-indazol-3-yl}amino)pyridine-4-carboxamide] | 
25 |  | > 7.00 | > 7.00 | CCCn1nc(Nc2cnccc2C(=O)O)c2cc(C)ccc21 [Example 38, 3-[(5-methyl-1-propyl-1H-indazol-3-yl)amino]pyridine-4-carboxylic acid] | 
26 |  | > 7.00 | > 7.00 | Cc1ccc2c(c1)c(Nc1cnccc1C(=O)O)nn2CCC(F)(F)F [Example 39, 3-{[5-methyl-1-(3,3,3-trifluoropropyl)-1H-indazol-3-yl]amino}pyridine-4-carboxylic acid] | 
27 |  | > 7.00 | > 7.00 | O=C(O)c1ccncc1Nc1nn(C2CCOCC2)c2ccc(F)cc12 [Example 62, 3-{[5-fluoro-1-(tetrahydro-2H-pyran-4-yl)-1H-indazol-3-yl]amino}pyridine-4-carboxylic acid] | 
28 | 5.00 to 6.00 |  |  | Cn1nc(Nc2cnccc2C(=O)O)c2ccc(F)cc21 [Example 6, 3-[(6-fluoro-1-methyl-1H-indazol-3-yl)amino]pyridine-4-carboxylic acid] | 
29 |  | > 7.00 | > 7.00 | O=C(O)c1ccncc1Nc1nn(C2CCCOC2)c2ccc(F)cc12 (centres unmarked) [Example 63, 3-{[5-fluoro-1-(tetrahydro-2H-pyran-3-yl)-1H-indazol-3-yl]amino}pyridine-4-carboxylic acid] | 
30 |  |  |  | CNCCCCCn1nc(Nc2cnccc2C(=O)O)c2cc(F)ccc21 [Example 46, 3-({5-fluoro-1-[5-(methylamino)pentyl]-1H-indazol-3-yl}amino)pyridine-4-carboxylic acid, trifluoroacetic acid salt] | < 5.00
31 | 5.00 to 6.00 |  |  | O=C(O)c1ccncc1Nc1nn([C@@H]2CCNC2)c2ccc(F)cc12 [Example 61, 3-({5-fluoro-1-[(3R)-pyrrolidin-3-yl]-1H-indazol-3-yl}amino)pyridine-4-carboxylic] | 
32 |  | > 7.00 | > 7.00 | CC(C)Cn1nc(Nc2cnccc2C(=O)NC#N)c2cc(F)ccc21 [Example 75, N-cyano-3-{[5-fluoro-1-(2-methylpropyl)-1H-indazol-3-yl]amino}pyridine-4-carboxamide] | 

Row | Structure (SMILES) | pIC50 (KDM5A/B; [1]) | pIC50 (Jarid1A) | pIC50 (Jarid1B) | pIC50 (KDM5A/B; [2])
33 | CCCn1cc(Nc2cnccc2C(=O)O)c2cc(F)ccc21 [Example 57, 3-[(5-fluoro-1-propyl-1H-indol-3-yl)amino]pyridine-4-carboxylic acid] |  | > 7.00 | > 7.00 | 
34 | O=C(O)c1ccncc1Nc1cn(C2CCOC2)c2ccc(F)cc12 (centres unmarked) [Example 68, 3-{[5-fluoro-1-(tetrahydrofuran-3-yl)-1H-indol-3-yl]amino}pyridine-4-carboxylic acid] |  | > 7.00 | > 7.00 | 
